The results in this text go back to patent US20240043420A1, “7-AZAINDOLE COMPOUNDS FOR INHIBITION OF BCR-ABL TYROSINE KINASES” (EnLiven Therapeutics, Inc., priority 2020, published 2024).

Broadly, the IC50 is the concentration at which inhibition is half-maximal.

One assay deals with ABL1 (T315I) (Homo sapiens, UniProt P00519, T315I). Nature of the assay: Luminescence-based ABL kinase assay (ADP-Glo, 300 μM ATP), T315I mutant. The format is biochemical. The method, then:
(§1) Kinase activity of ABL1 was measured using the ADP-Glo system (Promega), which measures formation of ADP using a luminescence-based method. Compounds were serially diluted in DMSO. 20 nL of compound or DMSO only (high control, HC) were added to a 384-well plate (OptiPlate-384, PerkinElmer) using an Echo550 liquid handler (Labcyte). 15 μL of kinase solution (10 mM MgCl2, 0.01% Brij-35, 2 mM DTT, 0.05% BSA, 1 mM EGTA, 50 mM HEPES pH 7.5, and 3.325 nM ABL1 [Carna Biosciences]) were added to each well of the 384-well plate containing the compounds. No enzyme control wells were included (low control, LC). The plate was incubated at room temperature for 30 minutes. 5 μL of a second solution containing 10 mM MgCl2, 0.01% Brij-35, 2 mM DTT, 0.05% BSA, 1 mM EGTA, 50 mM HEPES pH 7.5, 6 μM Peptide 2 (Perkin Elmer, Cat No 760346), and 1.2 mM ATP were added to each well to start the kinase reaction. The plate was incubated for 90 minutes at room temperature. 20 μL of ADP-Glo reagent (Promega) were then added to each well and the plate was incubated for 40 minutes at room temperature. 40 μL of kinase detection reagent (Promega) was added to each well and the plate was incubated for an additional 45 minutes at room temperature. During this step, ADP was converted to ATP, a substrate for luciferase, to produce luminescence signal. Luminescence was measured on an Envision plate reader (Perkin Elmer). Luminescence signal positively correlates with kinase activity. The percent kinase activity was calculated as follows: percent kinase activity=100×(Lumsample−LumLC)/(LumHC−LumLC). As noted above, DMSO only and no enzyme wells were used as high and low controls, respectively. IC50 values were calculated using the XLFit software.
In general terms: ADP-Glo turns the ADP formed in a reaction into a luminescent signal.

The next assay has as its system K562 cells. Nature of the assay: K562 cell proliferation assay (CellTiter-Glo). Type of assay: cell-based. The note with it: CellTiter-Glo viability, read-out: Cell Line (IC50, nM) K562. On the procedure:
(§2) K562 and HL60 cells, cultured in Iscove's Modified Dulbecco's Media (IMDM) supplemented with 10% FBS, were harvested at 50-80% confluency and plated at 2,000 cells per well (K562) or 1,500 cells per well (HL60) in 384-well tissue culture plates. A subset of wells contained media only (low control, LC). Compounds were serially diluted in DMSO. 40 nL of compound or DMSO only (high control, HC) were added to each well using an Echo 550 liquid handler (Labcyte). The plates were placed in a 37° C. incubator with 5% CO2 for 72 hours. Cell viability was measured using a CellTiter-Glo luminescent cell viability assay (Promega), which allows for relative quantification of metabolically active cells by luminescence-based measurements of intracellular ATP concentrations. Briefly, plates were removed from the incubator and equilibrated for 15 minutes at room temperature prior to the addition of 40 μL of CellTiter-Glo reagent. Plates were then incubated for 30 minutes at room temperature. Luminescence was measured using an EnSpire plate reader (Perkin Elmer). As noted above, luminescence values from wells with DMSO only or media without cells were used as high and low controls (HC and LC), respectively. Normalized percent viability was calculated as follows: percent viability=100×(Lumsample−LumLC)/(LumHC−LumLC).
In general terms: In ATP-based viability assays light output follows the ATP content of the culture.

The target of another assay is T1, ABL1 (Homo sapiens, UniProt P00519).
T1 construct: purchased Carna Biosciences
Nature of the assay: Luminescence-based ABL kinase assay (ADP-Glo, 300 μM ATP). Type of assay: biochemical. The method, then: as §1

The test system of another assay is HL60 cells. Nature of the assay: HL60 cell proliferation assay (CellTiter-Glo). The format is cell-based. To be noted: CellTiter-Glo viability, read-out: Cell Line (IC50, nM) HL60. The method, then:
as §2

SMILES strings stand for the structures. Read-outs that look alike come from different tables or passages of the source.

For `COc1ccccc1-c1c[nH]c2nc(NC(=O)[C@@H]3C[C@@H]3CN3CCN(C)CC3)ccc12` (racemic) [Compound 41, cis-N-[3-(2-methoxyphenyl)-1H-pyrrolo[2,3-b]pyridin-6-yl]-2-[(4-methylpiperazin-1-yl)methyl]cyclopropane-1-carboxamide], the half-maximal inhibitory concentration (IC50) against ABL1 (T315I) is 26.8 nM; in the assay with K562 cells (Homo sapiens, K562, 72 h) it was 654 nM; against ABL1 it was 106 nM; with HL60 cells (Homo sapiens, HL-60, 72 h), > 10000 nM.
As for `CCOc1ncccc1-c1n[nH]c2nc(NC(=O)[C@@H]3C[C@@H]3F)ccc12` [Compound 64, (1S,2S)—N-[3-(2-ethoxypyridin-3-yl)-1H-pyrazolo[3,4-b]pyridin-6-yl]-2-fluorocyclopropane-1-carboxamide], the IC50 against ABL1 (T315I) was 140 nM; in the assay with K562 cells (Homo sapiens, K562, 72 h), 610 nM; against ABL1 it was 56.9 nM; in the assay with HL60 cells (Homo sapiens, HL-60, 72 h), > 10000 nM.
The like results for `COc1ccccc1-c1c[nH]c2nc(NC(=O)NCCOCCN(C)C)ccc12` [Compound 124, 3-[2-[2-(dimethylamino)ethoxy]ethyl]-1-[3-(2-methoxyphenyl)-1H-pyrrolo[2,3-b]pyridin-6-yl]urea] were, in that order, 30.6 nM, 359 nM, 317 nM and > 10000 nM.
On the same counts, the results for `COc1cc2ncsc2cc1-c1c[nH]c2nc(NC(=O)NCCN3CCNCC3)ccc12` [Compound 139, 3-[3-(5-methoxy-1,3-benzothiazol-6-yl)-1H-pyrrolo[2,3-b]pyridin-6-yl]-1-[2-(piperazin-1-yl)ethyl]urea; bis(formic acid)] are 16.8 nM, 1380 nM, 18.6 nM and > 10000 nM.
Turning to `COc1nccc(OC2CC2)c1-c1c[nH]c2nc(NC(=O)C3CC3OCCN(C)C)ccc12` (single isomer, unassigned) [Example S220, Enantiomer 1, N-(3-(4-cyclopropoxy-2-methoxypyridin-3-yl)-1H-pyrrolo[2,3-b]pyridin-6-yl)-2-(2-(dimethylamino)ethoxy)cyclopropane-1-carboxamide], the IC50 in the assay with K562 cells (72 hours) was 24.9 nM; in the assay on HL60 cells (Homo sapiens, HL-60, 72 h), > 10000 nM.
Regarding `COc1nc2[nH]ncc2cc1-c1c[nH]c2nc(NC(=O)[C@@H]3C[C@@H]3F)ccc12` [Compound 144, (1S,2S)-2-fluoro-N-(3-[6-methoxy-1H-pyrazolo[3,4-b]pyridin-5-yl]-1H-pyrrolo[2,3-b]pyridin-6-yl)cyclopropane-1-carboxamide], the IC50 in the assay with K562 cells (Homo sapiens, K562, 72 h) was 32 nM; with HL60 cells (Homo sapiens, HL-60, 72 h), > 10000 nM.
With `COc1nccc(OC2CC2)c1-c1c[nH]c2nc(NC(=O)C3CC3OCCN3CCC3)ccc12` (single isomer, unassigned) [Example S221, Enantiomer 1, 2-(2-(azetidin-1-yl)ethoxy)-N-(3-(4-cyclopropoxy-2-methoxypyridin-3-yl)-1H-pyrrolo[2,3-b]pyridin-6-yl)cyclopropane-1-carboxamide], the IC50 in the assay on K562 cells (72 hours) worked out at 11.1 nM; with HL60 cells (Homo sapiens, HL-60, 72 h), 6590 nM.
On to `COc1cccc(OC)c1-c1c[nH]c2nc(NC(=O)C3CC3CCN(C)C)ccc12` (single isomer, unassigned) [Example S205, Enantiomer 2, N-(3-(2,6-dimethoxyphenyl)-1H-pyrrolo[2,3-b]pyridin-6-yl)-2-(2-(dimethylamino)ethyl)cyclopropane-1-carboxamide], for which the IC50 at ABL1 (T315I) came out at 20.9 nM; with K562 cells (72 hours), 55.3 nM; at ABL1, 15 nM.
Turning to `COc1cccc(OC)c1-c1c[nH]c2nc(NC(=O)C3CC3CCN(C)C)ccc12` (single isomer, unassigned) [Example S205, Enantiomer 1, N-(3-(2,6-dimethoxyphenyl)-1H-pyrrolo[2,3-b]pyridin-6-yl)-2-(2-(dimethylamino)ethyl)cyclopropane-1-carboxamide], the results for the IC50 on ABL1 (T315I), in the assay on K562 cells (72 hours) and at ABL1 were 15 nM, 21.5 nM and 10.6 nM, respectively.
In the case of `COc1cccc(OC)c1-c1c[nH]c2nc(NC(=O)C3CC3)ccc12` [Compound 45, N-[3-(2,6-dimethoxyphenyl)-1H-pyrrolo[2,3-b]pyridin-6-yl]cyclopropanecarboxamide], the IC50 in the assay with K562 cells (Homo sapiens, K562, 72 h) was 52.7 nM; in the assay on HL60 cells (Homo sapiens, HL-60, 72 h), > 10000 nM.
On to `COc1nccc(OC2CC2)c1-c1c[nH]c2nc(NC(=O)C3CC3OCCN3CCC3)ccc12` (single isomer, unassigned) [Example S221, Enantiomer 2, 2-(2-(azetidin-1-yl)ethoxy)-N-(3-(4-cyclopropoxy-2-methoxypyridin-3-yl)-1H-pyrrolo[2,3-b]pyridin-6-yl)cyclopropane-1-carboxamide], for which the IC50 in the assay on K562 cells (72 hours) was found to be 39.7 nM; in the assay with HL60 cells (72 hours), 8660 nM.
With `COc1nccc(OC2CC2)c1-c1c[nH]c2nc(NC(=O)C3CC3OCCN(C)C)ccc12` (single isomer, unassigned) [Example S220, Enantiomer 2, N-(3-(4-cyclopropoxy-2-methoxypyridin-3-yl)-1H-pyrrolo[2,3-b]pyridin-6-yl)-2-(2-(dimethylamino)ethoxy)cyclopropane-1-carboxamide], the figures for the IC50 with K562 cells (72 hours) and in the assay on HL60 cells (72 hours) were 57.3 nM and > 10000 nM, respectively.
With `COc1ccccc1-c1c[nH]c2nc(NC(=O)NCCN(C)C)ccc12` [Compound 97, 3-[2-(dimethylamino)ethyl]-1-[3-(2-methoxyphenyl)-1H-pyrrolo[2,3-b]pyridin-6-yl]urea], the IC50 against ABL1 (T315I) was found to be 61.6 nM; at ABL1, 199 nM.
On to `COc1nc2nccn2cc1-c1c[nH]c2nc(NC(=O)[C@@H]3C[C@@H]3F)ccc12` [Compound 128, (1S,2S)-2-fluoro-N-(3-(7-methoxyimidazo[1,2-a]pyrimidin-6-yl)-1H-pyrrolo[2,3-b]pyridin-6-yl)cyclopropane-1-carboxamide], for which the values for the IC50 on ABL1 (T315I) and against ABL1 were 97.1 nM and 24.9 nM, respectively.
Turning to `COc1ccccc1-c1c[nH]c2nc(NC(=O)NCCC#N)ccc12` [Compound 104, 3-(2-cyanoethyl)-1-[3-(2-methoxyphenyl)-1H-pyrrolo[2,3-b]pyridin-6-yl]urea], the IC50 against ABL1 (T315I) came to 29.1 nM; on ABL1 it was 102 nM.
On to `CNc1ccc(-c2c[nH]c3nc(NC(=O)C4CC4)ccc23)c(OC)n1` [Compound 30, N-[3-[2-methoxy-6-(methylamino)pyridin-3-yl]-1H-pyrrolo[2,3-b]pyridin-6-yl]cyclopropanecarboxamide], for which the IC50 against ABL1 (T315I) was 90.2 nM; against ABL1, 148 nM.
As to `Nc1ncccc1-c1c[nH]c2nc(NC(=O)C3CC3)ccc12` [Compound 36, N-[3-(2-aminopyridin-3-yl)-1H-pyrrolo[2,3-b]pyridin-6-yl]cyclopropanecarboxamide], the results for the concentration for half-maximal inhibition (IC50) on ABL1 (T315I) and at ABL1 were 690 nM and 202 nM, respectively.
On the same counts, the results for `COc1c(F)cc(F)c(OC)c1-c1c[nH]c2nc(NC(=O)[C@@H]3C[C@@H]3F)ccc12` [Compound 120, (1S,2S)—N-[3-(3,5-difluoro-2,6-dimethoxyphenyl)-1H-pyrrolo[2,3-b]pyridin-6-yl]-2-fluorocyclopropane-1-carboxamide] are 60.8 nM and 65.5 nM.
With `O=C(Nc1ccc2c(-c3cccnc3OCC3CC3)c[nH]c2n1)C1CC1F` (single isomer, unassigned) [Example S148, Enantiomer 1, N-(3-(2-(cyclopropylmethoxy)pyridin-3-yl)-1H-pyrrolo[2,3-b]pyridin-6-yl)-2-fluorocyclopropane-1-carboxamide Enantiomer 1], the IC50 at ABL1 (T315I) worked out at 1810 nM; on ABL1, 408 nM.
